# Molecular target: T1, human PAH with the R408W mutation (Homo sapiens, UniProt P00439, R408W)
# T1 construct: expressed in transfected cells
# T1 sequence (P00439 1-452 R408W): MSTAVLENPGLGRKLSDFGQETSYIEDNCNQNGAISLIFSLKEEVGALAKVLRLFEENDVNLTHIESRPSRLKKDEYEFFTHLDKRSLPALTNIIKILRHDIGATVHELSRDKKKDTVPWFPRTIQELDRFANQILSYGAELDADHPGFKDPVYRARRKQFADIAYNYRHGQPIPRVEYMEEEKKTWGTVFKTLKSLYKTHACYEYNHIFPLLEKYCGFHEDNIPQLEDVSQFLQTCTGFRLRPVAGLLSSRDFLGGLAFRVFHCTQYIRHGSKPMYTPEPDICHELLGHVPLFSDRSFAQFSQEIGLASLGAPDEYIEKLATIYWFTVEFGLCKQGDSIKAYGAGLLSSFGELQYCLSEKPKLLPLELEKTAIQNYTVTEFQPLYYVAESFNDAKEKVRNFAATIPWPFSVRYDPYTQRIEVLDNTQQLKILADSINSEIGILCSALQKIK
# Assay: Cell Based Phenylalanine Flux Assay;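 further: after compound treatment, cells received sepiapterin plus isotope-labelled Phenylalanine for 4 hours, then labelled Tyrosine in the medium was quantified, 10-point 2-fold dilution series run in duplicate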
# Conditions: A375 cells expressing human R408W PAH; 24 hrs compound incubation; 13C-Tyrosine by LC-MS; average where tested multiple times; read-out: AC50
row,AC50,Structure (SMILES)
1,1000 to 5000 nM,"O=C(c1nnc(C2CC2)o1)N1CCc2[nH]cnc2[C@@H]1c1cc2c(C(F)F)cccn2n1 [Example 981, (R)-(5-cyclopropyl-1,3,4-oxadiazol-2-yl)(4-(4-(difluoromethyl)pyrazolo[1,5-a]pyridin-2-yl)-6,7-dihydro-1H-imidazo[4,5-c]pyridin-5(4H)-yl)methanone]"
2,< 500 nM,"O=C(c1nnc(-c2ncccc2F)o1)N1CCc2[nH]cnc2[C@H]1c1cc2cccc(Cl)n2n1 [Example 982, (S)-(4-(7-chloropyrazolo[1,5-a]pyridin-2-yl)-6,7-dihydro-1H-imidazo[4,5-c]pyridin-5(4H)-yl)(5-(3-fluoropyridin-2-yl)-1,3,4-oxadiazol-2-yl)methanone]"
3,> 5000 nM,"O=C(c1nnc(-c2ncccc2F)o1)N1CCc2[nH]cnc2[C@@H]1c1cc2cccc(Cl)n2n1 [Example 983, (R)-(4-(7-chloropyrazolo[1,5-a]pyridin-2-yl)-6,7-dihydro-1H-imidazo[4,5-c]pyridin-5(4H)-yl)(5-(3-fluoropyridin-2-yl)-1,3,4-oxadiazol-2-yl)methanone]"
4,1000 to 5000 nM,"O=C(c1nnc(-c2cnn(C(F)F)c2)o1)N1CCc2[nH]cnc2[C@@H]1c1cc2cccc(F)n2n1 [Example 985, (R)-(5-(1-(difluoromethyl)-1H-pyrazol-4-yl)-1,3,4-oxadiazol-2-yl)(4-(7-fluoropyrazolo[1,5-a]pyridin-2-yl)-6,7-dihydro-1H-imidazo[4,5-c]pyridin-5(4H)-yl)methanone]"
5,1000 to 5000 nM,"CC(C)(F)c1nnc(C(=O)N2CCc3[nH]cnc3[C@@H]2c2cc3cccc(F)n3n2)o1 [Example 986, (R)-(5-(2-fluoropropan-2-yl)-1,3,4-oxadiazol-2-yl)(4-(7-fluoropyrazolo[1,5-a]pyridin-2-yl)-6,7-dihydro-1H-imidazo[4,5-c]pyridin-5(4H)-yl)methanone]"
6,500 to 1000 nM,"CC(C)(F)c1nnc(C(=O)N2CCc3[nH]cnc3[C@H]2c2cc3cccc(F)n3n2)o1 [Example 987, (S)-(5-(2-fluoropropan-2-yl)-1,3,4-oxadiazol-2-yl)(4-(7-fluoropyrazolo[1,5-a]pyridin-2-yl)-6,7-dihydro-1H-imidazo[4,5-c]pyridin-5(4H)-yl)methanone]"
7,< 500 nM,"Cc1cccn2nc([C@@H]3c4nc[nH]c4CCN3C(=O)c3nnc(-c4cnn(C)c4C)o3)cc12 [Example 988, (S)-(5-(1,5-dimethyl-1H-pyrazol-4-yl)-1,3,4-oxadiazol-2-yl)(4-(4-methylpyrazolo[1,5-a]pyridin-2-yl)-6,7-dihydro-1H-imidazo[4,5-c)pyridin-5(4H)-yl)methanone]"
8,1000 to 5000 nM,"Cc1cccn2nc([C@H]3c4nc[nH]c4CCN3C(=O)c3nnc(-c4cnn(C)c4C)o3)cc12 [Example 989, (R)-(5-(1,5-dimethyl-1H-pyrazol-4-yl)-1,3,4-oxadiazol-2-yl)(4-(4-methylpyrazolo[1,5-a]pyridin-2-yl)-6,7-dihydro-1H-imidazo[4,5-c]pyridin-5(4H)-yl)methanone]"
9,500 to 1000 nM,"CC(C)(O)c1nc(Cl)c(C(=O)N2CCc3[nH]cnc3[C@H]2c2cc3ccccn3n2)o1 [Example 990, (S)-(4-chloro-2-(2-hydroxypropan-2-yl)oxazol-5-yl)(4-(pyrazolo[1,5-a]pyridin-2-yl)-6,7-dihydro-1H-imidazo[4,5-c]pyridin-5(4H)-yl)methanone]"
10,500 to 1000 nM,"Cc1nc(C(C)(C)C#N)oc1C(=O)N1CCc2[nH]cnc2[C@H]1c1cc2ccccn2n1 [Example 992, (S)-2-methyl-2-(4-methyl-5-(4-(pyrazolo[1,5-a]pyridin-2-yl)-4,5,6,7-tetrahydro-1H-imidazo[4,5-c]pyridine-5-carbonyl)oxazol-2-yl)propanenitrile]"
11,< 500 nM,"O=C(c1oc(C2(O)CC2)nc1C(F)F)N1CCc2[nH]cnc2[C@H]1c1cc2ccccn2n1 [Example 994, (S)-(4-(difluoromethyl)-2-(1-hydroxycyclopropyl)oxazol-5-yl)(4-(pyrazolo[1,5-a]pyridin-2-yl)-6,7-dihydro-1H-imidazo[4,5-c]pyridin-5(4H)-yl)methanone]"
